{"source": "ChEMBL document CHEMBL1158292", "about": "“Progress in the discovery of biosynthetic anticancer drugs” (1996)", "assay_type_in_all_cases": "functional", "key": {"P388 [1]": {"test_system": "P388", "experiment": "Antineoplastic activity against mouse P388 cells at 12.5 mg/kg relative to control"}, "B16": {"test_system": "B16", "experiment": "In vivo antineoplastic activity against mouse B16 cells at 11 ug/kg"}, "P388 [2]": {"test_system": "P388", "experiment": "Antineoplastic activity against mouse P388 cells at 100 mg/kg relative to control"}, "P388 [3]": {"test_system": "P388", "experiment": "Antineoplastic activity against mouse P388 cells at 32 mg/kg relative to control"}, "[4]": {"experiment": "Growth inhibition of human breast cancer cells at 10^-10 M", "conditions": "Cancer cell lines, read-out: GI"}, "[5]": {"experiment": "Growth inhibition of human ovarian cancer cells at 10^-10 M", "conditions": "Cancer cell lines, read-out: GI"}, "[6]": {"experiment": "Growth inhibition of human lung cancer cells at 10^-10 M", "conditions": "Cancer cell lines, read-out: GI"}, "[7]": {"experiment": "Growth inhibition of human renal cancer cells at 10^-10 M", "conditions": "Cancer cell lines, read-out: GI"}, "OVCAR-3": {"test_system": "OVCAR-3", "experiment": "In vivo antineoplastic activity against human OVCAR-3 cells at 25 ug/kg"}, "[8]": {"experiment": "Growth inhibition of human colon cancer cells at 10^-10 M", "conditions": "Cancer cell lines, read-out: GI"}, "P388 [9]": {"test_system": "P388", "experiment": "Antineoplastic activity against mouse P388 cells"}, "P388 [10]": {"test_system": "P388", "experiment": "Antineoplastic activity against mouse P388 cells at 3 mg/kg relative to control"}}, "data": [{"smiles": "C=C1C(=O)O[C@@H]2[C@H](O)[C@@H](C)[C@@H]3C=CC(=O)[C@@]3(C)[C@@H](OC(=O)/C(C)=C\\C)[C@H]12", "note": "[MULTIGILIN]", "values": [{"measurement": "T/C", "setting": "P388 [1]", "result": 164}]}, {"smiles": "CC[C@H](C)[C@@H]([C@@H](CC(=O)N1CCC[C@H]1[C@H](OC)[C@@H](C)C(=O)N[C@@H](Cc1ccccc1)c1nccs1)OC)N(C)C(=O)[C@@H](NC(=O)[C@H](C(C)C)N(C)C)C(C)C", "note": "[DOLASTATIN-10]", "values": [{"measurement": "Activity", "setting": "B16", "result": 80, "unit": "%"}]}, {"smiles": "NCCS(=O)(=O)O", "note": "[TAURINE]", "values": [{"measurement": "T/C", "setting": "P388 [2]", "result": 123}]}, {"smiles": "C=C1C(=O)O[C@@H]2C(=O)[C@@H](C)[C@@H]3C=CC(=O)[C@@]3(C)[C@@H](OC(=O)/C(C)=C\\C)[C@H]12", "note": "[MULTISTATIN]", "values": [{"measurement": "T/C", "setting": "P388 [3]", "result": 131}]}, {"smiles": "C=C(Cl)/C=C/[C@H](O)CC(=C)C[C@H]1O[C@@H]2[C@H](C)[C@@H](OC(=O)C[C@@H]3C[C@@H](OC(C)=O)C[C@]4(C[C@](C)(O)C[C@@H](CC(=C)[C@H](C)[C@@H](OC(C)=O)[C@H](C)C(=O)C[C@H]5C[C@@H](OC)C[C@]6(C[C@H](O)C[C@@H](/C=C\\CCC[C@@H]7O[C@@](O)(C[C@@H](O)[C@@H]7C)[C@H]2O)O6)O5)O4)O3)[C@@H]1O", "values": [{"measurement": "inhibition of growth at 0.0001 µM", "setting": "[4]", "result": 50, "unit": "%"}, {"measurement": "inhibition of growth at 0.0001 µM", "setting": "[5]", "result": 50, "unit": "%"}, {"measurement": "inhibition of growth at 0.0001 µM", "setting": "[6]", "result": 50, "unit": "%"}, {"measurement": "inhibition of growth at 0.0001 µM", "setting": "[7]", "result": 50, "unit": "%"}, {"measurement": "Activity", "setting": "OVCAR-3", "result": 70, "unit": "%"}, {"measurement": "inhibition of growth at 0.0001 µM", "setting": "[8]", "result": 50, "unit": "%"}]}, {"smiles": "C[C@@H]1[C@]2(O[C@H]3C=C4[C@@H]5CC[C@H]6Cc7nc8c(nc7C[C@]6(C)[C@H]5C[C@@H](O)[C@]4(C)[C@]31O)C[C@@H]1CC[C@H]3C4=CC[C@@H]5[C@H](C)[C@@]6(OC[C@]45C(=O)C[C@@H]3[C@@]1(C)C8)OC(C)(C)C[C@H]6O)O[C@](C)(CO)C[C@H]2O", "note": "[CEPHALOSTATIN 1]", "values": [{"measurement": "ED50", "setting": "P388 [9]", "result": 1, "unit": "×10⁻⁹ ug/ml"}]}, {"smiles": "C=C1C(=O)O[C@@H]2C[C@@H](C)[C@@H]3C=CC(=O)[C@@]3(C)[C@@H](O)[C@H]12", "note": "[HELENALIN]", "values": [{"measurement": "T/C", "setting": "P388 [10]", "result": 220}]}]}
